Read-outs that look alike come from different tables or passages of the source. Where a SMILES comes first, the peptide text is derived from it. Where no end group is shown, it is not given here. [ ]: non-standard residue; d: D form. Phe(4-NO2) = N[C@@H](Cc1ccc([N+](=O)[O-])cc1)C(=O)O; pGlu = O=C1CC[C@@H](C(=O)O)N1; 2Abz = Nc1ccccc1C(=O)O
Experiments:
[1] = target: T1, angiotensin-converting enzyme (ACE) from rabbit lung (Oryctolagus cuniculus, UniProt P12822); assay: ACE bioactivity assay, dose-response (concentration-response) curves of synthetic peptides; assay type: biochemical; design: angiotensin-converting enzyme (ACE) from rabbit lung; purchased Sigma-Aldrich (Zwijndrecht, The Netherlands); host or cells: rabbit lung tissue
T1 sequence (P12822 34-1310): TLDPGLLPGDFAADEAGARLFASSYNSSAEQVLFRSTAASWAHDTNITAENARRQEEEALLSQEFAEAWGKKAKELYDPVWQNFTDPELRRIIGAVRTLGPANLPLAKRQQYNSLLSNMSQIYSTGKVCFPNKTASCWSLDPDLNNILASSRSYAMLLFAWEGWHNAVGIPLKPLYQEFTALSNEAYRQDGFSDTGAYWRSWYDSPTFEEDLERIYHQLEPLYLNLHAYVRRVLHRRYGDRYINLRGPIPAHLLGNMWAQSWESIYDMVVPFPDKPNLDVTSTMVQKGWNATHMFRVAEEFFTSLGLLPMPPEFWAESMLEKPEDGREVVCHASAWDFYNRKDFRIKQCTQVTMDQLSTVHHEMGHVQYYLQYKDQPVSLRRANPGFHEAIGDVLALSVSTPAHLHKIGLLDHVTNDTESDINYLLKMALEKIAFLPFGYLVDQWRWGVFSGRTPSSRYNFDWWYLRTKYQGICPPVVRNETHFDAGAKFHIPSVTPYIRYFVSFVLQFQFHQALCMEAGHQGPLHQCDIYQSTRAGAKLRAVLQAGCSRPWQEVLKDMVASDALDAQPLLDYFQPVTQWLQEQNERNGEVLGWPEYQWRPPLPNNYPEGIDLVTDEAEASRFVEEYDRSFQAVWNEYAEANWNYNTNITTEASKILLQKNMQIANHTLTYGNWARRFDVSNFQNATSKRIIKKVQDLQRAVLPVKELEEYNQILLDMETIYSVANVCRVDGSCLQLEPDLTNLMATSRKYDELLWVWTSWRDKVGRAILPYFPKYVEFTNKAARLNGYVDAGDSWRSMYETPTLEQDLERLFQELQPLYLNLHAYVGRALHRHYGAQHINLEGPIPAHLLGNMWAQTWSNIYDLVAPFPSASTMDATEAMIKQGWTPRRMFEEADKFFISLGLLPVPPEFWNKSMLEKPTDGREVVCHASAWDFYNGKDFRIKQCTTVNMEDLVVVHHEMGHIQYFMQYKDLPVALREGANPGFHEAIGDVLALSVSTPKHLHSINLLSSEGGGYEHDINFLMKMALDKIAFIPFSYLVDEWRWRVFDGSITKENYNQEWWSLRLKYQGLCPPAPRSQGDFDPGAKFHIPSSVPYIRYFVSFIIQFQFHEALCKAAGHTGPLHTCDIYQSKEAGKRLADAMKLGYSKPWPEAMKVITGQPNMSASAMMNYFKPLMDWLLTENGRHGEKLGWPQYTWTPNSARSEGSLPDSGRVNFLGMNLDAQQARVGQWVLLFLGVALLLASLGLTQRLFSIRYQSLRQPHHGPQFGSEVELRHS
Protocol: Water was purified using a Milli-Q Plus system from Millipore (Amsterdam, The Netherlands). Acetonitrile (ACN) (ULC/MS grade) and formic acid (FA) were obtained from Biosolve (Valkenswaard, The Netherlands). […] DMSO was obtained from Riedel-de Haën (Zwijndrecht, The Netherlands).
(§1) ACE was stored at −20 °C as a 1-U/mL solution in 50% glycerol/50% 0.15 M Tris-HCl pH 8.3 supplemented with 5 mM ZnCl2. […] The assay was performed in a 0.15 M Tris-HCl buffer pH 8.3 supplemented with 0.5 M NaCl. […] This solution was then added directly to the nanofractionated plates at room temperature using a Multidrop™ 384 Reagent Dispenser (Thermo Fisher Scientific, Ermelo, The Netherlands). The final volume of the assay was 75 μL/well. The readout of the assay was fluorescence measured with a Varioskan™ Flash Multimode Reader (Thermo Fisher Scientific, Ermelo, The Netherlands) at 320 nm excitation and 420 nm emission wavelength. The measurements were performed at 37 °C after 1 h and after 2 h from the start of addition of the assay solution to the plates. Between the two time points, the plates were incubated at 37 °C. The activity of ACE in the wells was expressed as the slope of the kinetic curve that resulted from the two time point measurements. The resulting slopes were normalized and plotted in a graph versus time of each nanofraction collected using the GraphPad Prism 6 software (La Jolla, CA, USA). The slopes were normalized by dividing each slope value with the median of all the values obtained in a single measurement.
The dose-response curves of all four synthetic peptides were determined and the IC50 values for each peptide were determined in the ACE bioactivity assay.
The serial dilutions of the peptides were tested in the assay using 1 mU/mL ACE enzyme and
40 µM substrate concentration.

[2] = target: T1, angiotensin-converting enzyme (ACE) from rabbit lung; conditions: Fig. S1; for Vmax: normalized response
Protocol: as §1
In the presence of an ACE inhibitor, a drop in the basal fluorescence is detected.
This was done by performing enzyme kinetic experiments using different substrate and enzyme concentrations. In total, five different enzyme concentrations (2.5, 5, 10, 20, and 40 mU) were tested in the ACE bioactivity assay, at eight substrate concentrations (5–500 μM), in a matrix fashion. […] Therefore, the results excluding the highest concentration tested (500 μM) were fitted into a Michaelis-Menten enzyme kinetic model. […] The data presented was normalized for comparison reasons (ESM Fig. S1). […] However, when using sufficiently long incubation times, low enzyme concentrations will yield a sufficient assay window for obtaining good S/N, also in combination with much lower than the Km substrate concentrations. In practice, these assay conditions allowed for two measurement points at 1 and 2 h after the beginning of the incubation resulting in repeatable slope determination of the enzymatic product formation.

[3] = target: T1, angiotensin-converting enzyme (ACE) from rabbit lung; assay type: biochemical; design: angiotensin-converting enzyme (ACE) from rabbit lung; purchased Sigma-Aldrich (Zwijndrecht, The Netherlands); host or cells: rabbit lung tissue; conditions: peptide in bioactive wells after LC nanofractionation of crude venom, sequenced by nanoLC-MS/MS
Description: Water was purified using a Milli-Q Plus system from Millipore (Amsterdam, The Netherlands). Acetonitrile (ACN) (ULC/MS grade) and formic acid (FA) were obtained from Biosolve (Valkenswaard, The Netherlands). […] DMSO was obtained from Riedel-de Haën (Zwijndrecht, The Netherlands). Most snake venoms were obtained commercially from Kentucky Reptile Zoo (USA), Ventoxin (USA), Biotoxin (USA), Venom Supplies (Tanunda, Australia), and African Reptiles & Venoms (Johannesburg, South Africa). The Boiga irregularis and Gloydius blomhoffii venoms were kind gifts from Prof. Steve Mackessy (University of Northern Colorado, USA) and Prof. Sadaaki Iwanaga (Kyushu University, Japan), respectively. Lyophilized venoms were kept at −20 °C. Prior to analysis, snake venoms were diluted in water to an end concentration of approximately 5.0 ± 0.1 mg/mL. After analysis, the samples were kept at −80 °C for later re-analysis.
Liquid chromatography separation was performed on a Shimadzu (‘s-Hertogenbosch, The Netherlands) UPLC system controlled via the Shimadzu Lab Solutions software. Sample injection was performed with a Shimadzu SIL-30AC autosampler using a 50-μL injection volume for RPLC separation and a 20-μL injection volume for HILIC separation. A gradient separation was performed on a Waters (Milford, MA) xBridge C18 column (100 × 4.6 mm; 5 μm) with an xBridge C18 guard column (10 × 4.6 mm; 5 μm) in RPLC mode. In HILIC mode, an Atlantis™ HILIC silica column (150 × 2.1 mm; 3 μm) was used. The columns were thermostated at 37 °C in a Shimadzu CTD-30A column oven. The solvent delivery was performed with two Shimadzu LC-30AD parallel pumps with 0.6 and 0.15 mL/min total flow rates for RPLC and HILIC separation, respectively. The mobile phases consisted of eluent A (98% H2O, 2% ACN, and 0.1% FA) and eluent B (98% ACN, 2% H2O, and 0.1% FA). The setup was optimized and validated in RPLC mode using the following gradient: a linear increase from 0 to 30% B in 20 min followed by 5-min isocratic elution at 30% B and a subsequent decrease to 0% B in 1 min with a 5-min equilibration time. The snake venoms screening for ACE activity was performed both in RPLC and HILIC mode. In the RPLC mode, venoms were analyzed using a 20-min linear gradient from 0 to 50% B followed by a linear increase to 90% B in 2 min and then a 2-min isocratic elution at 90% B before going back to 0% B in 1 min. The column was then equilibrated for 5 min. In the HILIC mode, separation started at 50% B and decreased linearly to 0% B in 20 min. This was followed by 4-min column washing at 0% B and a subsequent increase to 50% B in 1 min. The column was then equilibrated for 10 min. After the column, a flow split was introduced in a 1:9 ratio. The larger flow portion was directed to a Gilson 235P autosampler for 6-s nanofractionation onto black 384-well plates (Greiner Bio One, Alphen aan den Rijn, The Netherlands). The nanofractionated plates were subsequently dried in a Christ Rotational Vacuum Concentrator (Salm en Kipp, Breukelen, The Netherlands) RVC 2−33 CD plus and then stored at −20 °C until use. Ariadne, an in-house written software, was used to control the nanofractionation. The smaller flow portion was directed towards a Shimadzu SPD-M20A prominence diode array detector followed by a Waters Ultima quadrupole–time-of-flight (q–TOF) mass spectrometer equipped with an electrospray ionization (ESI) source. […]

Compound: CC[C@H](C)[C@H](NC(=O)[C@@H]1CCC(=O)N1)C(=O)N[C@@H](Cc1c[nH]c2ccccc12)C(=O)N1CCC[C@H]1C(=O)N[C@@H](CCCNC(=N)N)C(=O)N1CCC[C@H]1C(=O)N[C@@H](Cc1c[nH]cn1)C(=O)N[C@H](C(=O)N1CCC[C@H]1C(=O)N1CCC[C@H]1C(=O)O)C(C)C ([pGlu]IWPRPHVPP-OH)
- IC50 [1]: 1.01 µM

Compound: CC(C)C[C@H](NC(=O)[C@@H]1CCC(=O)N1)C(=O)N[C@@H](Cc1c[nH]c2ccccc12)C(=O)N1CCC[C@H]1C(=O)N[C@@H](CCCNC(=N)N)C(=O)N1CCC[C@H]1C(=O)N[C@@H](Cc1c[nH]cn1)C(=O)N[C@H](C(=O)N1CCC[C@H]1C(=O)N1CCC[C@H]1C(=O)O)C(C)C ([pGlu]LWPRPHVPP-OH)
- IC50 [1]: 1.09 µM

Compound: CC[C@H](C)[C@H](NC(=O)[C@@H]1CCCN1C(=O)[C@@H]1CCCN1C(=O)[C@H](CCCNC(=N)N)NC(=O)[C@@H]1CCCN1C(=O)[C@@H]1CCCN1C(=O)[C@H](Cc1c[nH]c2ccccc12)NC(=O)[C@@H]1CCCN1C(=O)[C@@H]1CCCN1C(=O)[C@H](Cc1c[nH]c2ccccc12)NC(=O)[C@@H]1CCC(=O)N1)C(=O)N1CCC[C@H]1C(=O)N1CCC[C@H]1C(=O)O ([pGlu]WPPWPPRPPIPP-OH; C-terminus assumed)
- IC50 [1]: 3.47 µM

Compound: CC(C)C[C@H](NC(=O)[C@@H]1CCCN1C(=O)[C@@H]1CCCN1C(=O)[C@H](CCCNC(=N)N)NC(=O)[C@@H]1CCCN1C(=O)[C@@H]1CCCN1C(=O)[C@H](Cc1c[nH]c2ccccc12)NC(=O)[C@@H]1CCCN1C(=O)[C@@H]1CCCN1C(=O)[C@H](Cc1c[nH]c2ccccc12)NC(=O)[C@@H]1CCC(=O)N1)C(=O)N1CCC[C@H]1C(=O)N1CCC[C@H]1C(=O)O ([pGlu]WPPWPPRPPLPP-OH)
- IC50 [1]: 3.37 µM

Compound: Nc1ccccc1C(=O)NCC(=O)N[C@@H](Cc1ccc([N+](=O)[O-])cc1)C(=O)N1CCC[C@H]1C(=O)O [M1100, o-Aminobenzoylglycyl-p-nitro-L-phenylalanyl-L-proline] (H-[2Abz]G[Phe(4-NO2)]P-OH)
- Km ([2]; 2.5 mU ACE): 46.8 µM
- Vmax ([2]; 2.5 mU ACE): 120.0
- Km ([2]; 5 mU ACE): 79.4 µM
- Vmax ([2]; 5 mU ACE): 129.3
- Km ([2]; 10 mU ACE): 56.3 µM
- Vmax ([2]; 10 mU ACE): 122.9
- Km ([2]; 20 mU ACE): 65.9 µM
- Vmax ([2]; 20 mU ACE): 126.5
- Km ([2]; 40 mU ACE): 65.4 µM
- Vmax ([2]; 40 mU ACE): 126.6

Compound: [pGlu]NWPRPKVPP
- ACE inhibitory peptide assigned to bioactivity peak (in words) [3]: ACE inhibitory peptides

Compound: pE(I/L)WPRPHVPP
- ACE inhibitory peptide assigned to bioactivity peak (in words) [3]: major bioactive compounds

Compound: pEQWPPGHH(I/L)PP
- ACE inhibitory peptide assigned to bioactivity peak (in words) [3]: ACE inhibitory peptides
- ACE inhibitory peptide assigned to bioactivity peak (in words) ([3]; listed as peptide with m/z 1276): major bioactive compounds

Compound: pEWPPWPPRPP(I/L)PP
- ACE inhibitory peptide assigned to bioactivity peak (in words) [3]: bioactive peptide

From article PMC5602078, “Rapid screening and identification of ACE inhibitors in snake venoms using at-line nanofractionation LC-MS” (Analytical and Bioanalytical Chemistry, 2017)
